Experimental data from PubChem BioAssay AID1902 (Broad Institute, 2009).
The source made the active and inactive calls.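 How the source made its calls: active means EC50 no more than a set limit of log units above the highest dose; inactive means the rest.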

Biological target: S. pyogenes SKKanGAS, kanamycin survival, BacTiterGlo, 6 h
Test: S. pyogenes SKKanGAS kanamycin growth inhibitors – SKKanGAS strain, luminescence, dose confirmation, streptokinase promoter inhibitor project, dose response (AID 1902);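 further: lower survival reflects blocked streptokinase promoter driving kanamycin resistance gene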

Compound | EC50
CC(C)C[C@H](NC(=O)c1nc[nH]c1C(=O)NC1CCN(C(=O)OC(C)(C)C)CC1)C(=O)OCc1ccccc1 | 5.47 µM
COc1cc(C)ccc1OCCCOc1ccccc1Br | 5.9 µM
C=CCSc1nc2ccccc2c(=O)n1Cc1ccccc1 | 15.3 µM
CC[C@H]1OC(=O)[C@H](C)[C@@H](O[C@H]2C[C@@](C)(OC)[C@@H](O)[C@H](C)O2)[C@H](C)[C@@H](O[C@@H]2O[C@H](C)C[C@H](N(C)C)[C@H]2O)[C@](C)(OC)C[C@@H](C)C(=O)[C@H](C)[C@@H](O)[C@]1(C)O | < 0.06 µM
Cc1ccc(-n2sc3ccccc3c2=O)cc1 | 1.27 µM
N=C1S/C(=C\c2ccc(-c3cccc(Cl)c3)o2)C(=O)N1c1nccs1 | < 0.06 µM
COc1cc2c(C(=O)N3CCN(c4ccccc4C)CC3)c(C)oc2cc1Br | 10.3 µM
CCC1CCCCN1S(=O)(=O)c1ccc(NC(=O)c2nc(S(C)(=O)=O)ncc2Cl)cc1 (stereo unspecified) | 9.42 µM
O=C(Nc1nc(-c2ccccn2)cs1)c1cccc(-n2cnnn2)c1 | 2.3 µM
O=[N+]([O-])c1ccc(O)c(N=Cc2sc3ccccc3c2O)c1 | 2.97 µM
Cc1ccc(Cc2cnc(N3C(=N)SC(c4ccccc4)C3=O)s2)cc1 (stereo unspecified) | 0.105 µM
O=C(CCl)c1ccc(Cc2ncc(C(F)(F)F)cc2Cl)s1 | 3.69 µM
Cc1nc(-c2ccccn2)nc(SCC(=O)c2ccccc2)c1Cl | 0.811 µM
O=[N+]([O-])c1ccc(O)c(Nc2ncnc3ccc(Br)cc23)c1 | 3.32 µM
CC(C)(C)c1cc(-c2csc(Nc3ccccc3)[n+]2Cc2ccc(C(=O)O)cc2)cc(C(C)(C)C)c1O | 2.15 µM
O=C(NNc1nc2ccc(Cl)cc2s1)c1cc(-c2cccs2)nc2ccccc12 | 0.334 µM
COc1cc(-c2c(C#N)c(N)nc3c2c(C)nn3-c2ccc(C)c(C)c2)cc(OC)c1OC | 4.53 µM
CSc1ccc(/C=C/c2ccc3cccc(O)c3n2)cc1 | 1.97 µM
O=C(Nc1nnc(-c2ccc3c(c2)CCCC3)o1)c1c(F)cccc1F | 0.612 µM
CS(=O)(=O)c1ccc2nc(NC(=O)c3ccc(NS(=O)(=O)c4cccc([N+](=O)[O-])c4)cc3)sc2c1 | 1.64 µM
NC(=S)N=Nc1ccc(NN=C(N)N)cc1 | < 0.06 µM
CC(OC(=O)Cc1n[nH]c(=O)c2ccccc12)C(=O)Nc1ccc(Cl)cn1 (stereo unspecified) | 14.7 µM

Compound | EC50
O=C1Nc2ccccc2S/C1=C/Nc1cccc(Cl)c1 | 6.77 µM
Cc1cc(C)cc(C(=O)NC2C(=O)N3C(C(=O)O)=C(CSc4nnc(C)s4)CSC23)c1 (stereo unspecified) | 0.38 µM
O=Cc1cc(N=Nc2ccccc2Cl)ccc1O | 2.96 µM
N=C1SCC(=O)N1c1ncc(Cc2ccc(F)cc2)s1 | 1 µM
O=C1c2ccccc2C(=O)c2c1oc(C(F)(F)F)c2C(=O)c1ccccc1 | 1.82 µM
CC(C)=CCc1cc([C@@H]2COc3c(ccc4c3C=CC(C)(C)O4)C2)c(O)cc1O | 2.94 µM
O=C(Nc1ccc(F)c(Cl)c1)Nc1csc2ccccc12 | 2.79 µM
Cc1ccc(SCC(=O)N2c3ccccc3Sc3ccccc32)cc1 | 3.78 µM
Oc1ccc2ccccc2c1/C=N/Nc1nnc(-c2ncc[nH]2)c2ccccc12 | 1.55 µM
CCN(c1ccc(OC)cc1)S(=O)(=O)c1nnc(NC(=O)c2ccccc2Cl)s1 | 3.31 µM
CC(=O)c1c(O)cc(O)c(C(C)=O)c1O | 2.64 µM
CCOc1ccc(-c2csc(/C(C#N)=C\c3ccc(O)c([N+](=O)[O-])c3)n2)cc1 | 1.99 µM
Cc1cc(N/N=C/c2ccccc2O)nc(-c2ccccc2O)n1 | 1.6 µM
CC(=O)NC(c1ccc(C)cc1)c1cc(Cl)c2cccnc2c1O (stereo unspecified) | 1.42 µM
Cc1ccc(/C=C/C(=O)c2ccccc(=O)c2O)c(C)c1 | 3.57 µM
O=C(N/N=C/c1cc(Br)cc([N+](=O)[O-])c1O)c1ccc(NC(=O)c2ccc(F)cc2)cc1 | 4 µM
COc1ccc(/C=C/C(=O)NC(=S)NNC(=O)c2cc(OC)c(OC)c(OC)c2)cc1 | 1.08 µM
Cc1coc2c1C(=O)C(=O)c1c-2ccc2c(C)cccc12 | 2.75 µM
Clc1ccc(/C=N/NC(=Nc2ccccc2)c2ccccn2)c(Cl)c1 | 13.5 µM
COc1ccc(S(=O)(=O)NCC2CCCN(Cc3ccc(OC)cc3F)C2)cc1 (stereo unspecified) | > 15 µM (inactive)
Cc1nn(-c2ccccc2)c2c1C(c1ccc(O)c(O)c1)N1C(=N2)C(Nc2ccccc2)=Nc2ccccc21 (stereo unspecified) | 1.36 µM
COc1ccc(CC2=CC(=O)c3ccccc3C2=O)cc1 | 7.96 µM

Compound | EC50
CCC(C)Sc1cc(-c2nc3ccccn3c2NC2CCCCC2)ccc1OC (stereo unspecified) | 2.94 µM
CC(C)(C)[C@@H]1CCC(=O)N(CC[C@H](Sc2ccccc2)c2ccccc2)CC1 | 3.95 µM
O=c1cc(-c2ccccc2Cl)oc2ccc([N+](=O)[O-])c(O)c12 | 3.25 µM
CCCC(NC(=S)NCC1CCCO1)C12CC3CC(CC(C3)C1)C2 (stereo unspecified) | 5.79 µM
COc1ccc(C(=O)CSc2nc(-c3ccccn3)nc(C)c2Cl)cc1 | 1.4 µM
CC(C)(C)c1cc(NCCCn2ccnc2)n2ncc(-c3ccc(Cl)cc3)c2n1 | 2.38 µM
Clc1ccc(N2COC3c4cccc5cccc(c45)C32)cc1 (stereo unspecified) | 7.55 µM
CN(C)/C=C1\SC(=S)N(c2ccc(Br)cc2)C1=O | 5.37 µM
COc1cccc(-c2nn(-c3ccccc3)cc2C(=O)Nc2nccs2)c1 | 2.98 µM
CCCCCCCCCCn1c2c(c(=N)c3c1CCC3)CCC2 | 9.26 µM
c1ccc2c(c1)nc(Nc1ccc(N3CCCCC3)cc1)c1nncn12 | 6.03 µM
COc1ccccc1CN1CN(S(=O)(=O)c2ccccc2)c2nc3ccccc3nc21 | 5.13 µM
c1ccc(Nc2nc3ccccc3[nH]2)nc1 | 1.46 µM
O=C(Nc1cccc(-c2nc3ccccc3[nH]2)c1)c1ccc(C(=O)Nc2cccc(-c3nc4ccccc4[nH]3)c2)cc1 | > 15 µM (inactive)
Cc1cc(C(=O)N/N=C/c2cc(Br)cc([N+](=O)[O-])c2O)c2ccccc2n1 | 0.893 µM
COc1ccc(-c2nc(NC(=O)C3CC(=O)N(c4ccc5c(c4)OCCO5)C3)sc2C)cc1 (stereo unspecified) | 12 µM
Cc1cc(N/N=C/c2c(O)ccc3ccccc23)nc(-c2ccccc2O)n1 | 0.257 µM
Cc1cc(C)n(-c2nc(Nc3ccccc3C(F)(F)F)nc(-n3nc(C)cc3C)n2)n1 | 2.67 µM
CCCCn1c(O)c(C(C)=Nc2ccc(OCC)cc2)c(=O)[nH]c1=O | 9.75 µM
Oc1cccc2ccc(/C=C/c3ccccc3Br)nc12 | 0.158 µM
O=C(N/N=C/c1c(O)ccc2ccccc12)Nc1ccccc1 | 7.74 µM
c1ccc(-c2oc3ncnc(NCCCn4ccnc4)c3c2-c2ccccc2)cc1 | 8.92 µM

Compound | EC50
Cc1c2ccncc2c(C)c2c1[nH]c1ccccc12 | 3.02 µM
Cc1ccc(Nc2nc3ccccc3[nH]2)nc1 | 1.28 µM
C/C(=N\Nc1cc(N2CCCCC2)nc(C)n1)c1ccc(Br)cc1 | 4.46 µM
O=[N+]([O-])c1cc(Br)c(O)c(/C=N/Nc2nnnn2-c2cccc3ccccc23)c1 | 5.44 µM
Cc1noc(NS(=O)(=O)c2ccc(NC(=O)c3oc4ccc(Cl)cc4c3C)cc2)c1C | 6.63 µM
O=C(Cc1ccc([N+](=O)[O-])cc1)N/N=C/c1ccc([N+](=O)[O-])o1 | 9.86 µM
Cc1cc(N2CCC(C)CC2)nc(-n2nc(C)cc2C)n1 | 7.73 µM
Fc1ccccc1CNc1cc(Cl)cc(Cl)c1 | 12.5 µM
COc1cc(/C(C)=C/c2ccccc2)c2c(c1)oc1ccccc12 | 4.04 µM
Cc1nn(-c2ccccc2)c(Cl)c1C1C(C#N)=C(N)Oc2c1c(=O)oc1ccccc21 (stereo unspecified) | 0.112 µM
COc1cc(C(=O)NNC(=S)NC(=O)c2ccc(Cl)cc2)cc(OC)c1OC | 0.499 µM
CC(=O)O[C@H]1C[C@@]2(C)[C@@H](C[C@@H](O)[C@H]3[C@@]4(C)CC[C@@H](O)[C@@H](C)[C@@H]4CC[C@@]32C)/C1=C(\CCC=C(C)C)C(=O)O | 0.177 µM
Cc1noc(C)c1-c1nnc(-c2ccc(OC(F)(F)F)cc2)o1 | > 15 µM (inactive)
Cc1ccc(CNC(=S)Nc2ccc(NS(=O)(=O)c3ccc(C)cc3)cc2)cc1 | 8.28 µM
COc1ccc(OC)c2[nH]c(C(=O)N/N=C/c3ccccc3O)cc12 | 1.64 µM
CCCOc1ccc(C(=O)NNC(=S)NC(=O)c2cc(-c3ccc(Cl)cc3)nc3ccccc23)cc1 | < 0.06 µM
O=C(O)CC/C(=C\c1cc2c(cc1Br)OCO2)c1nc2ccccc2s1 | 10.5 µM
C[C@]12CCC(O)CC1CCC1C2CC[C@]2(C)C(c3cc(C(F)(F)F)n[nH]3)CCC12 (stereo partly specified) | 1.9 µM
COCC1CCN(C(=O)CCc2nnc(C3(c4ccc(Cl)cc4)CCC3)o2)C1 (stereo unspecified) | > 15 µM (inactive)
CCCCC(=O)O[C@H]1CC[C@H]2[C@@H]3CCc4cc(O)ccc4[C@H]3CC[C@]12C | 3.83 µM
CCOC(=O)C1=C(C)n2c(s/c(=C/c3cccc([N+](=O)[O-])c3)c2=O)=NC1c1ccc(O)c(OC)c1 (stereo unspecified) | 10.5 µM
OC(c1ccc(OCc2ccccc2)cc1)c1nnc(-c2ccccc2)o1 (stereo unspecified) | 13.4 µM

Compound | EC50
CC1(C)S[C@@H]2[C@H](NC(=O)Cc3ccccc3)C(=O)N2[C@H]1C(=O)O | < 0.06 µM
Cc1ccc2nc(N3C(=O)CNC3=S)sc2c1 | 4.32 µM
N#C/C(=C(/O)CCl)c1nc2c(s1)CCc1ccccc1-2 | 12.2 µM
Cc1[nH]c2ccccc2c1/C=N/Nc1nc2ccccc2[nH]1 | 4.87 µM
COc1cc(OC)c2cc(C(=O)N/N=C/c3ccccc3O)[nH]c2c1 | 1.1 µM
COc1ccc(-c2oc3cccnc3c2C#CC2(O)CCCCC2)cc1 | 7.36 µM
CC1=Nc2ccccc2/C1=C\c1nc(-c2ccc(F)cc2)oc1O | 7.57 µM
COc1cc(NS(=O)(=O)c2ccc(C)cc2)c2ncccc2c1 | 0.777 µM
COc1cnc(-c2ccccn2)nc1Oc1c(C)cccc1C | 0.202 µM
CCCc1ccc(OCC(=O)NNC(=S)NC(=O)c2ccco2)cc1 | < 0.06 µM
O=C(Nc1ccc(-c2csc(Nc3ccccc3)n2)cc1)c1cccc(C(F)(F)F)c1 | > 15 µM (inactive)
COc1ccc(C(=O)NNC(=S)NC(=O)c2ccco2)cc1 | 2.29 µM
CCOc1ccc2nc(NC(=O)CN3CCC(n4nnc5cc(C(F)(F)F)ccc54)CC3)sc2c1 | 2.43 µM
Cc1cc(C)nc(N/N=C/c2cc(Br)ccc2O)n1 | 12.9 µM
COc1ccc(CCNC(=O)c2ccc(CNS(=O)(=O)c3ccc(C(C)(C)C)cc3)cc2)cc1OC | 7 µM
COC(=O)c1cc(-c2cccc(OC)c2)c2c(=O)[nH]c(=O)n(C)c2n1 | 4.31 µM
COc1cc2nc(CSc3nc(-c4ccc(F)cc4)cs3)[nH]c(=O)c2cc1OC | > 15 µM (inactive)
Cc1ccc(S(=O)(=O)Nc2ccc(Cl)cc2)cc1NC(=O)c1cc2c(s1)CCCC2 | 6.63 µM
